This experiment concerns the target T1, YesO (Bacillus subtilis, UniProt O31518).
T1 construct: primer-encoded N-terminus MTLRIAWWG, native stop codon, no tag apparent
Kind of experiment: X-ray crystallography of the complex, […] Å. The conditions noted are these: crystallised with 1 mM oligo-RG-I (mostly disaccharide, trisaccharide seen in density); Tris-HCl pH 8.5, 20 C; cleft between N- and C-domains. It counts as binding.

Structures are written as SMILES.

T1 sequence (O31518 34-427): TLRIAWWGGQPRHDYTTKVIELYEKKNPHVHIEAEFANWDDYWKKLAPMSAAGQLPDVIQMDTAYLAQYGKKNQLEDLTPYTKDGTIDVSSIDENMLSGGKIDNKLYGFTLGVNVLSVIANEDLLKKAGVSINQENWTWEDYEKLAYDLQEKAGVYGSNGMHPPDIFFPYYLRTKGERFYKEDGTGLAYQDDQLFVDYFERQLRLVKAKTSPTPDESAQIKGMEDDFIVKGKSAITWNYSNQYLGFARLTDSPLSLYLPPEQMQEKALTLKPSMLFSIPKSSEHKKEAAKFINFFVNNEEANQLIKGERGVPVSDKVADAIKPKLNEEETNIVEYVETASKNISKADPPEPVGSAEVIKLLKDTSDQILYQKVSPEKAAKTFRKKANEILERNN

Take `C[C@@H]1OC(O)[C@H](O[C@H]2OC(C(=O)O)=C[C@H](O)[C@H]2O)[C@H](O)[C@H]1O[C@@H]1O[C@H](CO)[C@H](O)[C@H](O)[C@H]1O` (stereo partly shown) [ΔGalUA-Rha-Gal]: the “X-ray crystallography of the complex, 1.58 Å” value was “X-ray crystallography of YesO/oligo-RG-I indicated an interaction between YesO and the trisaccharide, ΔGalUA-Rha-Gal”.

The record behind these values is PMC7596534, “Bacterial inducible expression of plant cell wall-binding protein YesO through conflict between Glycine max and saprophytic Bacillus subtilis” (Scientific Reports, 2020).
